Source: US5385931A, “Sulfonamides derived from benzocyclic or benzoheterocyclic acids, their preparation and application in therapeutics” (Pierre Fabre Medicament, priority 1989, dated 1995)
≈ marks a conversion by molar mass, not a printed value.

Assays:
[1] = Solubility in water; format: physicochemical; conditions: for solubility: read-out: soluble in water to give a solution of
[2] = system: blood platelet aggregation induced by U.46619; experiment: In vitro rabbit platelet aggregation induced by U.46619; format: cell-based, New Zealand rabbits; conditions: Oryctolagus cuniculus; rabbit platelet-rich plasma; U.46619 1.05 to 2.44 micromoles; pre-incubated 1 min at 37° C., pH 7.4
Protocol: (§1) Blood is taken from white male New Zealand rabbits which have not received any treatment capable of disrupting the platelet functions.
(§2) After having allowed the first drops to flow freely, the blood is collected in plastic tubes containing 3.8% (wt/v) trisodium citrate 5.5 H2 O, the citrate/blood ratio being 1 volume of citrate per 9 volumes of blood.
(§3) The blood platelet aggregation study is carried out starting from plasmas rich in platelets obtained by centrifuging the above blood samples at low speed. It is measured with the aid of a Mustard aggregometer at a wavelength of 609 nm with a stirring speed of 1,100 revolutions/min.
(§4) The products to be studied are dissolved in polyethylene glycol 300 and pre-incubated for 1 min at 37° C. under a volume of 10 microliters,in a mixture of 300 microliters of plasma rich in platelets and 90 microliters of Tyrode's solution without calcium, pH=7.4. (Corresponding controls are produced by pre-incubating the vehicle on its own instead of solutions of products to be studied).
(§5) The blood platelet aggregation is initiated by the addition either of U.46619 (final concentrations: 1.05 to 2.44 micromoles) or of arachidonic acid (final concentrations: 50 to 100 micromoles).
(§6) Starting from the parameter of the maximum percentage aggregation, the anti-aggregant activity of a product is calculated using the formula: [formula]
One curve: anti-aggregant activity=f (final concentration) is plotted for each product and the 50% inhibitory concentration determined from the graph.
In the case of aggregation with U.46619, the IC50 are given in Table I for compounds 1, 2, 3, 7 and 11 by way of non-limiting example: […]

[3] = Solubility in DMSO; format: physicochemical
[4] = system: conventional mice; experiment: Toxicology, intraperitoneal, mice; format: in vivo; conditions: 500 mg per kilo intraperitoneally
Protocol: The chemical compounds described above were subjected to toxicity checks. This study was carried out on conventional mice weighing from 20 to 22 g. The compounds of general formula I were administered intraperitoneally.

[5] = system: platelet aggregation induced by U.46619; experiment: Ex vivo inhibition of U.46619-induced platelet aggregation after oral administration in rabbits; design: species or system New Zealand rabbits; conditions: t=+90 min relative to control curve at t=0
Protocol: b) Ex vivo action: inhibition of anti-aggregant effects using U.46619 in rabbits.
Because of their powerful activity in vitro, the anti-aggregant effects ex vivo were studied in rabbits. The substances of general formula I, which are the subject of the present invention, are administered orally as a 1% suspension in carboxymethylcellulose to natural male New Zealand rabbits weighing 2.5 to 3 kg after going without nourishment for about 18 h. Blood samples were taken by cardiac puncture at time 0 and after 90 min. The aggregant U.46619 was used under the same conditions as above and the measurement of the aggregation was carried out using the same technique.
The results are expressed in Table III in terms of percentage inhibition of the maximum amplitude of the aggregation curve at t=+90 min relative to the control curve at t=0 and are given for compounds 2 and 3 by way of non-limiting example: […]

[6] = system: blood platelet aggregation induced by arachidonic acid; experiment: In vitro rabbit platelet aggregation induced by arachidonic acid; format: cell-based, New Zealand rabbits; conditions: arachidonic acid 50 to 100 micromoles; for inhibition at 100 µM / inhibition at 10 µM: Oryctolagus cuniculus, Platelet; for inhibition at 100 µM: final concentration of compound 10^-4 M; for inhibition at 10 µM: final concentration of compound 10^-5 M
Protocol: as §1, §2, §3, §4, §5, §6
The percentage inhibition of the aggregation with arachidonic acid is given in Table II for compounds 2 and 3 by way of non-limiting examples: […]

With `O=C(CNS(=O)(=O)c1ccc(Cl)cc1)c1ccc2c(c1)CCC(C(=O)O)O2` (racemic) [Compound 27, dl-Lysine 6-(parachlorobenzenesulphonamidoacetyl)-2-chromancarboxylate] the solubility [1] was 10000 µg/mL (≈ 24.4 mM).

`O=C(CNS(=O)(=O)c1ccc(Cl)cc1)c1ccc2c(c1)CC(C(=O)O)C2` (racemic) [Compound 29, dl-Lysine 5-(parachlorobenzenesulphonamidoacetyl)-2-indanecarboxylate] showed a solubility [1] of 5000 µg/mL (≈ 12.7 mM).

In the case of `O=C(CNS(=O)(=O)c1ccc(Cl)cc1)c1ccc2c(c1)CC(C(=O)O)O2` (stereo not drawn) [Compound 1, 5-(parachlorobenzenesulphonamidoacetyl)-2,3-dihydro-2-benzofurancarboxylicacid], the IC50 [2] is reported as 600 nM, the “soluble in DMSO to give a solution of” value [3] is reported as 10% and the fatality [4] is reported as “not a single fatality”. For the same compound, the toxicity [4] was “atoxic”.

For `O=C(O)C1Cc2cc(CCNS(=O)(=O)c3ccc(Cl)cc3)ccc2O1` (stereo not drawn) [Compound 2, 5-(2-parachlorobenzenesulphonamidoethyl)-2,3-dihydro-2-benzofurancarboxylic acid], the IC50 [2] was 500 nM, the “% inhibition of aggregation” value ([5]; 5 mg/kg orally) was -64% and the “% inhibition of aggregation” value ([5]; 10 mg/kg orally) was -98%. The “soluble in DMSO to give a solution of” value [3] was 10%, the fatality [4] was “not a single fatality” and the toxicity [4] was “atoxic”. The inhibition at 100 µM [6] was -100%, the inhibition at 10 µM [6] was -79% and the “% inhibition of platelet aggregation” value ([6]; final concentration of compound 5.10^-6 M) was -31%.

With `O=C(O)C1Cc2cc(C(O)CNS(=O)(=O)c3ccc(Cl)cc3)ccc2O1` (stereo not drawn) [Compound 3, 5-(2-parachlorobenzenesulphonamido-1-hydroxyethyl)-2,3-dihydro-2-benzofurancarboxylic acid] the IC50 [2] was 5000 nM, the “% inhibition of aggregation” value ([5]; 5 mg/kg orally) was -43% and the “% inhibition of aggregation” value ([5]; 10 mg/kg orally) was -74%. For the same compound, the “soluble in DMSO to give a solution of” value [3] was 10%, the fatality [4] was “not a single fatality” and the toxicity [4] was “atoxic”. The inhibition at 100 µM [6] was -86%, the inhibition at 10 µM [6] was -7% and the “% inhibition of platelet aggregation” value ([6]; final concentration of compound 5.10^-5 M) was -78%.

For `O=C(O)C1Cc2cc(CCNS(=O)(=O)c3ccc(Cl)cc3)ccc2O1` (stereo not drawn) [Compound 4, 5-(2-parachlorobenzenesulphonamidoethyl)-2,3-dihydro-2-benzofurancarboxylic acid monohydrate], the “soluble in DMSO to give a solution of” value [3] was 10%.

For `CC(NS(=O)(=O)c1ccc(Cl)cc1)C(=O)c1ccc2c(c1)CC(C(=O)O)O2` (stereo not drawn) [Compound 5, 5-(α-methylparachlorobenzenesulphonamidoacetyl)-2,3-dihydro-2-benzofurancarboxylic acid], the “soluble in DMSO to give a solution of” value [3] was 10%.

For `CC(NS(=O)(=O)c1ccc(Cl)cc1)C(O)c1ccc2c(c1)CC(C(=O)O)O2` (stereo not drawn) [Compound 6, 5-(2-Parachlorobenzenesulphonamido-1-hydroxypropyl)-2,3-dihydro-2-benzofurancarboxylic acid], the “soluble in DMSO to give a solution of” value [3] was 5%.

In the case of `O=C(O)C1CCc2cc(CCNS(=O)(=O)c3ccc(Cl)cc3)ccc2O1` (stereo not drawn) [Compound 7, 6-(2-Parachlorobenzenesulphonamidoethyl)-2-chromancarboxylic acid], the IC50 [2] is reported as 500 nM and the “soluble in DMSO to give a solution of” value [3] is reported as 20%.

With `O=C(O)C1Oc2ccc(CCNS(=O)(=O)c3ccc(Cl)cc3)cc2O1` (stereo not drawn) [Compound 8, 5-(2-Parachlorobenzenesulphonamidoethyl)-1,3-benzodioxole-2-carboxylic acid] the “soluble in DMSO to give a solution of” value [3] was 20%.

With `O=C(O)C1Cc2ccc(CCNS(=O)(=O)c3ccc(Cl)cc3)cc2C1` (stereo not drawn) [Compound 9, 5-(2-parachlorobenzenesulphonamidoethyl)-2-indanecarboxylic acid] the “soluble in DMSO to give a solution of” value [3] was 10%.

For `O=C(O)C1Cc2cc(CCNS(=O)(=O)c3ccc(Cl)cc3)ccc2S1` (stereo not drawn) [Compound 10, 5-(2-Parachlorobenzenesulphonamidoethyl)-2,3-dihydro-2-benzothiophenecarboxylic acid], the “soluble in DMSO to give a solution of” value [3] was 20%.

For `O=C(O)c1cc2cc(CCNS(=O)(=O)c3ccc(Cl)cc3)ccc2o1` [Compound 11, 5-(2-Parachlorobenzenesulphonamidoethyl)-2-benzofurancarboxylic acid], the IC50 [2] was 2000 nM and the “soluble in DMSO to give a solution of” value [3] was 5%.

With `O=C(O)C1Cc2cc(C(CNS(=O)(=O)c3ccc(Cl)cc3)=NO)ccc2O1` (stereo not drawn) [Compound 13] the “soluble in DMSO to give a solution of” value [3] was 10%.

With `CON=C(CNS(=O)(=O)c1ccc(Cl)cc1)c1ccc2c(c1)CC(C(=O)O)O2` (stereo not drawn) [Compound 14, 5-(2-parachlorobenzenesulphonamido-1-methoxyiminoethyl)-2,3-dihydro-2-benzofurancarboxylic acid] the “soluble in DMSO to give a solution of” value [3] was 10%.

In the case of `Cc1ccc(S(=O)(=O)N(C)CC(=O)c2ccc3c(c2)CC(C(=O)O)O3)cc1` (stereo not drawn) [Compound 16, 5-(N-methylparatoluenesulphonamidoacetyl)-2,3-dihydro-2-benzofurancarboxylic acid], the “soluble in DMSO to give a solution of” value [3] is reported as 10%.

`O=C(O)C1Cc2cc(CCNS(=O)(=O)c3ccc(Cl)cc3)ccc2O1` (stereo not drawn) [Compound 17, Sodium 5-(2-parachlorobenzenesulphonamidoethyl)-2,3-dihydro-2-benzofurancarboxylate] showed a solubility [1] of 15000 µg/mL.

In the case of `CCOC(=O)C1CCc2cc(C(=O)CNS(=O)(=O)c3ccc(Cl)cc3)ccc2O1` (stereo not drawn) [Compound 20, ethyl 6-(parachlorobenzenesulphonamidoacetyl)-2-chromancarboxylate], the “soluble in DMSO to give a solution of” value [3] is reported as 25% and the “solubility in water” value [1] is reported as “insoluble in water”.

With `O=C(CNS(=O)(=O)c1ccc(Cl)cc1)c1ccc2c(c1)CCC(C(=O)O)O2` (stereo not drawn) [Compound 21, 6-(parachlorobenzenesulphonamidoacetyl)-2-chromancarboxylic acid] the “soluble in DMSO to give a solution of” value [3] was 25% and the “solubility in water” value [1] was “insoluble in water”.

For `O=C(CNS(=O)(=O)c1ccccc1)c1ccc2c(c1)CC(C(=O)O)O2` (stereo not drawn) [Compound 22, 5-(benzenesulphonamidoacetyl)-2,3-dihydro-2-benzofurancarboxylic acid], the “soluble in DMSO to give a solution of” value [3] was 25% and the “solubility in water” value [1] was “insoluble in water”.

With `COc1ccc(S(=O)(=O)NCC(=O)c2ccc3c(c2)CC(C(=O)O)O3)cc1` (stereo not drawn) [Compound 23, 5-paramethoxybenzenesulphonamidoacetyl-2,3-dihydro-2-benzofurancarboxylic acid] the “soluble in DMSO to give a solution of” value [3] was 30%.

With `O=C(CNS(=O)(=O)c1c(F)c(F)c(F)c(F)c1F)c1ccc2c(c1)CC(C(=O)O)O2` (stereo not drawn) [Compound 24, 5-Pentafluorobenzenesulphonamidoacetyl-2,3-dihydro-2-benzofurancarboxylic acid] the “soluble in DMSO to give a solution of” value [3] was 20% and the “solubility in water” value [1] was “insoluble in water”.

Work on `O=C(CNS(=O)(=O)c1ccc(Cl)cc1)c1ccc2c(c1)CC(C(=O)O)O2` (stereo not drawn) [Compound 25, (dl)-Lysine 5-parachlorobenzenesulphonamidoacetyl-2,3-dihydro-2-benzofurancarboxylate trihydrate] yielded a solubility [1] of 10000 µg/mL.

Compound `O=C(O)C1CCc2cc(CCNS(=O)(=O)c3ccc(Cl)cc3)ccc2O1` (stereo not drawn) [Compound 26, (dl)-Lysine 6-(2-parachlorobenzenesulphonamidoethyl)-2-chromancarboxylate] has a solubility [1] of 10000 µg/mL (≈ 25.3 mM).

With `O=C(CNS(=O)(=O)c1ccc(Cl)cc1)c1ccc2c(c1)CC(C(=O)O)C2` (stereo not drawn) [Compound 28, 5-(Parachlorobenzenesulphonamidoacetyl)-2-indanecarboxylic acid] the “soluble in DMSO to give a solution of” value [3] was 15% and the “solubility in water” value [1] was “insoluble in water”.
